Data on 35 compounds can be found in patent publication US10562891B2, “Quinazolinones as PARP14 inhibitors” (Ribon Therapeutics Inc., priority 2017, dated 2020).

Structures can show the parent of a compound that is named as a salt. Where only a bound is given, the exact number is not on record here.

The target in the assay is catalytic domain of human PARP14 (Homo sapiens (Human), UniProt Q460N5). Description: Enzymatic assay for inhibition of PARP14 (DELFIA, auto-modification with biotin-NAD). The note with it: auto-modification of PARP14 by biotin-NAD, 50 nM PARP14, 3 μM biotin-NAD. Format: biochemical. The method, then: An N-terminal His-TEV fusion tag was used to purify the protein from cell lysates. The His-TEV tag was left on the protein for use in the enzymatic assay.
Chain of catalytic domain of human PARP14 (Q460N5 1611-1801): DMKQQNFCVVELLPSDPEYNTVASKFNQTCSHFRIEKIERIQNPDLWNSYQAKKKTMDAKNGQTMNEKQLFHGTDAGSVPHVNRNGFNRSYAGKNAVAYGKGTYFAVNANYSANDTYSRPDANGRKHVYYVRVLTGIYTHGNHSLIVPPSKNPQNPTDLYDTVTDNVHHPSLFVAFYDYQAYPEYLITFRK
Enzymatic inhibition of PARP14 was measured using a dissociation-enhanced lanthanide fluorescence immunoassay (DELFIA) monitoring the auto-modification of PARP14 by biotinylated nicotinamide adenine dinucleotide (biotin-NAD). 1 μL of a dose response curve of each test compound was spotted in 384-well nickel-coated white microplates (Thermo) using a Mosquito (TTP Labtech). Reactions were performed in a 50 μL volume by adding 40 μL of PARP14 in assay buffer (20 mM HEPES pH==8, 100 mM NaCl, 0.1% bovine serum albumin, 2 mM DTT and 0.002%0 Tween20), incubating with test compound at 25° C. for 30 min, then adding 10 μL of biotin-NAD (Biolog). The final concentrations of PARP14 and biotin-NAD are 50 nM and 3 μM, respectively. Reactions proceeded at 25° C. for 3 h, then were quenched with 5 μL of 10 mM unmodified nicotinamide adenine dinucleotide (Sigma-Aldrich). The quenched reactions were washed 3 times with 100 μL of TBST wash buffer (50 mM Tris-HCl, 150 mM NaCl and 0.1% Tween20). Next, to the washed and dried plate was added 25 μL of DELFIA Europium-N1 streptavidin (Perkin Elmer) diluted in DELFIA assay buffer (Perkin Elmer). After a 30 min incubation at 25° C., the plate was washed 5 times with TBST wash buffer. Finally, 25 μL of DELFIA enhancement solution was added. After a 5 min incubation the plate was read on an Envision platereader equipped with a LANCE/DELFIA top mirror (Perkin Elmer) using excitation of 340 nm and emission of 615 nm to measure the amount of Europium present in each well, informing on the amount of biotin-NAD that was transferred in the automodification reaction.
[formula] where ex615cmpd is the emission from the compound treated well, ex615min is the emission from the rucaparib treated positive control well and ex615max is the emission from the DMSO treated negative control well.
The % inhibition values were plotted as a function of compound concentration and the following 4-parameter fit was applied to derive the IC50 values:
[formula] where top and bottom are normally allowed to float, but may be fixed at 100 or 0 respectively in a 3-parameter fit. The Hill Coefficient is normally allowed to float but may also be fixed at 1 in a 3-parameter fit. Y is the % inhibition and X is the compound concentration.
One may read the IC50 as the concentration at which inhibition is half-maximal. High values mean weaker potency in that assay, low ones greater potency in that assay. `O=c1[nH]c(CSC2CCNCC2)nc2cc(OCC3CCCC3)cc(F)c12` [Example 282, 7-(Cyclopentylmethoxy)-5-fluoro-2-((piperidin-4-ylthio)methyl)quinazolin-4(3H)-one 2,2,2-trifluoroacetate]: the half-inhibitory concentration (IC50) was less than 1 µM.
With `O=c1[nH]c(CSC2CCOCC2)nc2cc(NC3CCCC3)cc(F)c12` [Example 184, 7-(cyclopentylamino)-5-fluoro-2-(((tetrahydro-2H-pyran-4-yl)thio)methyl)quinazolin-4(3H)-one] the figure was less than 1 µM; with `CC1(C)CC(COc2cc(F)c3c(=O)[nH]c(CS[C@H]4CC[C@H](O)CC4)nc3c2)CO1` (some centres unmarked) [Example 355], less than 1 µM; with `O=c1[nH]c(CSC2CCOCC2)nc2cc(NCc3cccnc3)ccc12` [Example 123, 7-((Pyridin-3-ylmethyl)amino)-2-(((tetrahydro-2H-pyran-4-yl)thio)methyl)quinazolin-4(3H)-one], less than 1 µM.
Under `CS(=O)(=O)N1CCC[C@@H](Nc2cc(F)c3c(=O)[nH]c(CS[C@H]4CC[C@H](O)CC4)nc3c2)C1` [Example 269, 5-Fluoro-2-(((trans-4-hydroxycyclohexyl)thio)methyl)-7-(((R)-1-(methylsulfonyl)piperidin-3-yl)amino)quinazolin-4(3H)-one] stands less than 1 µM; under `CC(C)C(=O)N1CCC(COc2cc(F)c3c(=O)[nH]c(CSC4CCOCC4)nc3c2)CC1` [Example 397], less than 1 µM; under `Cc1cccc2c(=O)[nH]c(CSC3CCN(C)C3)nc12` (centres unmarked) [Example 16, 8-Methyl-2-(((1-methylpyrrolidin-3-yl)thio)methyl)quinazolin-4(3H)-one], 1 to 10 µM.
With `CO[C@H]1C[C@@H](Nc2cc3nc(CS[C@H]4CC[C@H](O)CC4)[nH]c(=O)c3c(F)c2F)C1` [Example 363] the figure was less than 1 µM; with `Cc1c(Oc2ccccc2)ccc2c(=O)[nH]c(CSC3CCOCC3)nc12` [Example 135, 8-Methyl-7-phenoxy-2-(((tetrahydro-2H-pyran-4-yl)thio)methyl)quinazolin-4(3H)-one], more than 10 µM.
Compound `Cc1cccc2c(=O)[nH]c(CS[C@H]3CC[C@@H](CO)OC3)nc12` (relative stereo) [Example 221, 2-(((Cis-6-(Hydroxymethyl)tetrahydro-2H-pyran-3-yl)thio)methyl)-8-methylquinazolin-4(3H)-one] showed an IC50 of 1 to 10 µM.
With `COC(=O)N1CCC(COc2cc(F)c3c(=O)[nH]c(CSC4CCOCC4)nc3c2)CC1` [Example 410] the figure was less than 1 µM; with `O=c1[nH]c(CS[C@H]2CC[C@H](CO)CC2)nc2cc(NC3CCCC3)ccc12` [Example 180, 7-(cyclopentylamino)-2-((((1R,4R)-4-(hydroxymethyl)cyclohexyl)thio)methyl)quinazolin-4(3H)-one], less than 1 µM; with `O=c1[nH]c(CSC2CCOCC2)nc2cc(OC[C@H]3CCOC3)cc(F)c12` [Example 239b, (S)-5-fluoro-2-(((tetrahydro-2H-pyran-4-yl)thio)methyl)-7-((tetrahydrofuran-3-yl)methoxy)quinazolin-4(3H)-one], less than 1 µM.
With `O=c1[nH]c(CS[C@H]2CC[C@H](O)CC2)nc2cc(NC3CCCC3(F)F)cc(F)c12` (some centres unmarked) [Example 350] the figure was less than 1 µM.
For the compound `COc1ccc(Nc2ccc3c(=O)[nH]c(CSC4CCOCC4)nc3c2)cc1` [Example 82, 7-((4-Methoxyphenyl)amino)-2-(((tetrahydro-2H-pyran-4-yl)thio)methyl)quinazolin-4(3H)-one], the IC50 was in the range of 1 to 10 µM.
With `NC[C@]1(F)CC[C@@H](SCc2nc3cc(NC4CCCC4)cc(F)c3c(=O)[nH]2)CC1` [Example 243, 2-(((trans-4-(Aminomethyl)-4-fluorocyclohexyl)thio)methyl)-7-(cyclopentylamino)-5-fluoroquinazolin-4(3H)-one Trifluoroacetate] the figure was less than 1 µM.
`Cc1cccc2c(=O)[nH]c(CSC3CCN(Cc4ccc5c(c4)NC(=O)C5)CC3)nc12` [Example 156, 8-Methyl-2-(((1-((2-oxoindolin-6-yl)methyl)piperidin-4-yl)thio)methyl)quinazolin-4(3H)-one trifluoroacetate]: the IC50 lay within 1 to 10 µM.
Under `COCC(=O)N1CCC(COc2cc(F)c3c(=O)[nH]c(CSC4CCOCC4)nc3c2)CC1` [Example 424] stands less than 1 µM; under `CN1C[C@H](COc2cc(F)c3c(=O)[nH]c(CSC4CCOCC4)nc3c2)[C@H](F)C1` (relative stereo) [Example 372], less than 1 µM.
The compound `CC(=O)N[C@H]1C[C@@H](SCc2nc3cc(OCC4CCOCC4)cc(F)c3c(=O)[nH]2)C1` [Example 387] showed an IC50 of less than 1 µM.
`CO[C@H]1CC[C@@H](SCc2nc3cc(OCC4CCOCC4)cc(F)c3c(=O)[nH]2)CC1` [Example 357] returned an IC50 of less than 1 µM.
Under `Cc1cccc2c(=O)[nH]c(CSC3CCN(C[C@H](O)CO)CC3)nc12` [Example 159, (S)-2-(((1-(2,3-Dihydroxypropyl)piperidin-4-yl)thio)methyl)-8-methyl quinazolin-4(3H)-one Trifluoroacetate] stands 1 to 10 µM; under `Cc1cccc2c(=O)[nH]c(CSC3CCN(S(C)(=O)=O)CC3)nc12` [Example 174, 8-Methyl-2-(((1-(methylsulfonyl)piperidin-4-yl)thio)methyl)quinazolin-4(3H)-one], less than 1 µM; under `O=c1[nH]c(CSC2CCOCC2)nc2cc(OCC3CC(F)(F)C3)cc(F)c12` [Example 317, 7-((3,3-Difluorocyclobutyl)methoxy)-5-fluoro-2-(((tetrahydro-2H-pyran-4-yl)thio)methyl)quinazolin-4(3H)-one], less than 1 µM.
`O=c1[nH]c(CS[C@H]2CCNC[C@@H](F)C2)nc2cc(NC3CCCC3)cc(F)c12` (relative stereo) [Example 241, 7-(Cyclopentylamino)-5-fluoro-2-(((cis-6-fluoroazepan-4-yl)thio)methyl)quinazolin-4(3H)-one] showed an IC50 of less than 1 µM.
Take `Nc1cc2nc(CSC3CCOCC3)[nH]c(=O)c2c(F)c1F` [Example 403]: the concentration for half-maximal inhibition (IC50) was more than 10 µM.
Under `Cc1cccc2c(=O)[nH]c(CS[C@H]3CC[C@H](N)CC3)nc12` [Example 49, 2-(((trans-4-Aminocyclohexyl)thio)methyl)-8-methylquinazolin-4(3H)-one Hydrochloride] stands 1 to 10 µM.
Under `O=c1[nH]c(CSC2CCNCC2)nc2cc(OCC3CCC3)cc(F)c12` [Example 280, 7-(Cyclobutylmethoxy)-5-fluoro-2-((piperidin-4-ylthio)methyl)quinazolin-4(3H)-one 2,2,2-trifluoroacetate] stands less than 1 µM.
With `CNC(=O)CN1CCC(SCc2nc3cc(NC4CCCC4)cc(F)c3c(=O)[nH]2)CC1` [Example 283, 2-(4-(((7-(Cyclopentylamino)-5-fluoro-4-oxo-3,4-dihydroquinazolin-2-yl)methyl)thio)piperidin-1-yl)-N-methylacetamide hydrochloride] the figure was less than 1 µM.
Compound `CC(=O)N1CCCC(COc2cc(F)c3c(=O)[nH]c(CSC4CCOCC4)nc3c2)C1` (centres unmarked) [Example 401] had an IC50 of less than 1 µM.
Under `CC(=O)Nc1ccc(CN2CCC(SCc3nc4c(C)cccc4c(=O)[nH]3)CC2)cc1` [Example 139, N-(4-((4-(((8-Methyl-4-oxo-3,4-dihydroquinazolin-2-yl)methyl)thio)piperidin-1-yl)methyl)phenyl)acetamide trifluoroacetate] stands less than 1 µM; under `O=c1[nH]c(CSC2CCOCC2)nc2cc(Nc3ccccc3)ccc12` [Example 79, 7-(Phenylamino)-2-(((tetrahydro-2H-pyran-4-yl)thio)methyl)quinazolin-4(3H)-one], less than 1 µM; under `Cc1cccc2c(=O)[nH]c(CSC3CCN(Cc4ccccc4OCC#N)CC3)nc12` [Example 155, 2-(2-((4-(((8-Methyl-4-oxo-3,4-dihydroquinazolin-2-yl)methyl)thio)piperidin-1-yl)methyl)phenoxy)acetonitrile trifluoroacetate], less than 1 µM.
`O=c1[nH]c(CS[C@H]2CC[C@@H](O)CC2)nc2cc(Nc3cccnc3)ccc12` [Example 100, 2-(((cis-4-Hydroxycyclohexyl)thio)methyl)-7-(pyridin-3-ylamino)quinazolin-4(3H)-one] showed an IC50 of less than 1 µM.
As for `Cc1ncccc1Nc1ccc2c(=O)[nH]c(CSC3CCOCC3)nc2c1` [Example 90, 7-((2-Methylpyridin-3-yl)amino)-2-(((tetrahydro-2H-pyran-4-yl)thio)methyl)quinazolin-4(3H)-one], the IC50 lay within 1 to 10 µM.
